Results taken from patent US11246910B2, “Methods of treating immunological disorders using immunosuppressive compositions” (Singapore Health Services Pte Ltd, priority 2016, dated 2022).

Columns and labels:
[1] = test system: two HLA-mismatched UCB-MNCs; experiment: Mixed lymphocyte reaction (MLR), cell-mediated cytotoxicity by LDH detection (in vitro GVHD model); type: cell-based, human; settings: lowest concentration giving maximum repression of cytotoxicity in MLR (FIG. 3)
Experimental: MLR served as an in vitro GVHD model and was initiated by co-culturing two HLA-mismatched UCB-MNCs at 15:1 effector/target (E/T) ratios in […] medium (Stem Cell Technologies) for 20 hours in 37° C., 5% CO2 incubator. The mixed lymphocytes (ML) were treated with BM-MSCs by co-culture without transwell inserts (i.e. physical direct contact) or with transwell inserts (i.e. indirect bidirectional regulation via the two secretomes) or with BM-MSC-conditional medium. Transwell inserts were placed at 0.5 mm and 0.9 mm above the well bottom, and the 1-day old BM-MSC culture medium was used as conditional medium (1d-CM). Untreated MLR was used as a negative control to set the cell-mediated cytotoxicity baseline of the MLR. The cell-mediated cytotoxicity was measured by lactate dehydrogenase (LDH) cytotoxicity detection kit (Roche). Following the kit instruction, the detection plate was incubated in the dark for 20 minutes at room temperature, and absorbance was measured at 490 nm with 650 nm as reference wavelength using Benchmark Plus microplate spectrophotometer (Bio-Rad).
All the proteins and antibodies were purchased from Peprotech. For each molecule, the lowest working concentration that caused the maximum repression of cytotoxicity by MLR was used for further analysis. In order to determine the optimal combination of interested cytokines, the twelve molecules were arranged in a 2^12 fractional FD table (Table 3). There were twelve factors with two levels. Level-1 meant without addition of this interested molecule, level-2 meant addition of this interested molecule with optimal working concentration. Condition-1 without addition of any interested molecules served as negative control; Condition-16 with addition of full panel of interested molecules and MLR laid on MSCs served as positive control respectively.
Based on the maximal extend attenuating cell-mediated cytotoxicity, another 2^7 factorial FD (Table 4) was derived from Condition-6 in 2^12 fractional FD, which involved IL-10, OPG, CXCL5, CXCL6, CCL20 anti-CCL1 and anti-CCL24.
Similarly, a 2^4 full FD (Table 5) was further derived from Condition-6 in 2^7 fractional FD, which involved OPG, CXCL5, anti-CCL1 and anti-CCL24.

healthy NSG mice = experiment: Maximum tolerance dose (MTD) study; type: in vivo
Text: Two doses of anti-CCL24 antibody and CXCL5 chemokine were administrated to 8-10 week-old healthy NSG mice by intravenous (IV) injection at day-1 and day-3 of every week. […]

DBA/1J mice with CIA = experiment: Collagen-induced arthritis (CIA) mouse model; type: in vivo; settings: treatment started on mice with mild arthritis (FIG. 21A)
Experimental: Arthritis was induced in 8 to 10 week-old DBA/1J mice following immunization with collagen and complete Freund's adjuvant (CFA) (Chondrex, USA). Complete Freund's adjuvant was prepared by mixing heat-inactivated mycobacterial strain H37RA in incomplete Freund's adjuvant (4 mg/mi). Lyophilized bovine type II collagen (Chondrex, USA) was dissolved overnight in acetic acid at 2 mg/ml. Complete Freund's adjuvant and collagen were mixed at a ratio of 1:1 to form an emulsion. 100 μg of collagen, which was then injected intradermally at the base of the tail. Mice were scored for arthritis weekly from day 30 after immunization. 50 ng/ml of CXCL5 was given twice/week to CIA mice for 3 consecutive weeks, to around day 40 to 50 post-induction, when mice started to show the arthritis symptoms. Mice treated with dPBS, bone marrow-derived mesenchymal stem cells (BM-MSCs; 5-10×10^6 cells/kg, single injection) and Prednisolone (Pred) (1 mg/kg/day for first 10 days, 0.5 mg/kg/day for the second 10 days) were used as positive and standard controls, respectively. Injection volume was normalized to the body weight of the mice. Mice were monitored for another 3 weeks post-treatment and then sacrificed for further analysis. Peripheral blood (PB) was collected on day 15 and day 42 post-treatment. Isolated blood cells and plasma were used for flow cytometry analysis and Luminex assay. […]

[2] = test system: DBA/2J mice with bleomycin-induced skin fibrosis; experiment: Bleomycin-induced scleroderma (systemic sclerosis) mouse model; type: in vivo
Experimental: Skin fibrosis was induced in 6 to 8-week-old DBA/2J mice by subcutaneous injection of bleomycin (0.5 mg/mi) into defined areas of 1 cm^2 on the lower back every other day, for 21 days. After a 3-week bleomycin challenge, another 3-week treatment was followed. 50 ng/ml of CXCL5 was given twice/week for 3 consecutive weeks. Mice treated with dPBS, bone marrow-derived mesenchymal stem cells (BM-MSCs; 5-10×10^6 cells/kg, single injection) and Prednisolone (Pred) (1 mg/kg/day for first 10 days, 0.5 mg/kg/day for the second 10 days) were used as positive and standard controls. Mice were sacrificed on day 21 post-treatment and the injected skin and peripheral blood were processed for further analysis.
Lesioned skin areas were excised, fixed in 10% formalin, and embedded in paraffin. Sections (5 μm thick) were stained with hematoxylin & eosin (H&E). The dermal thickness was analyzed at 100-fold magnification by measuring the distance between the epidermal-dermal junction and the dermal-subcutaneous fat junction at four sites from the lesioned skin of each mouse. Dermal leukocyte infiltration was counted on randomly-taken photos with High Power Field (HPF) (400×). Five photos were taken for each mouse. The average cell number of these five photos was used for counting the leukocyte infiltration. Two independent examiners performed the evaluation.

NSG mice with GVHD = experiment: Xenogeneic GVHD mouse model (human PBMCs into irradiated NSG mice)
Experimental: Moderate and severe xenogeneic GVHD mouse model was induced by injecting 200×10^6 cells/kg and 400×10^6 cells/kg of human cryopreserved PBMCs to NSG mice respectively by IV injection via tail vein. 240 cGy of irradiation was given to the mice 3-4 hours before the transplantation. […] NSG mice injected with dPBS were used as negative control. […] Injection volume was normalized to the body weight of the mice. Mouse survival was monitored daily, while clinical scoring was done every three days. 30-40 ul of mouse peripheral blood (PB) was collected from tail vein every 3 days, from day 18 onwards until day 36 post-treatment. Mouse plasma and isolated cells from PB, marrow and spleen were used for luminex assay (Bio-rad) and flow cytometry analysis (CyAN, Beckman coulter). […] At day 0, human PBMCs were transplanted into NSG mice to create the referenced GVHD model. The onset of GVHD is took place around day 10 to day 12 PT. Treatment of the sick mice commenced on day 10, day 14, day 17 and day 21 PT, and samples were taken from the mice on day 18, 21, 24, 27, 30, 33 and 36 PT.
Mouse survival was monitored daily and clinical score (for GVHD) was monitored every three days. The assessment of clinical GVHD index was based on five parameters: weight loss, posture, activity, fur texture and skin integrity, giving a maximum index of 10. At experimental end-point on day 30 post-treatment, histological evaluation was performed on representative mice on the following tissues: skin, small intestine and kidney with Haematoxylin and Eosin (H&E) stain. Key histological parameters assessed were different for each tissue type according to accepted published criteria for acute GVHD in the different organ systems. Basal vacuolar change, spongiosis and lymphocytic satelittosis were graded for skin; crypt apoptosis, lymphocytic inflammation and intraepithelial lymphocytosis was graded for small intestine; and interstitial inflammation, tubulitis and arterial changes were graded for kidney. All parameters were graded with 4 tiers (none, mild, moderate and severe) and given a score of 0-3, giving a maximum index of 27 (Table 7). The slides were scored in blinded fashion by a single observer.
Circulating human source cytokines/chemokines were measured using a Bio-plex Pro Human Cytokine 17-plex kit (Bio-rad). It included analytes of G-CSF, GM-CSF, IFN-γ, IL-1β, IL-2, IL-4, IL-5, IL-6, IL-7, IL-8, IL-10, IL-12, IL-13, IL-17A, MCP-1, MIP-1β and TNF-α in the analysis. Following the standard protocol, 16 times diluted plasma samples were incubated with magnetic beads for 2 hours, the with detection antibodies for 1 hour and finally with streptavidin-PE for 10 minutes at room temperature. Three complete wash steps were required between each incubation step. The plate was read on Milliplex Analyzer (Millipore) with Luminex xPONENT software.
Cells isolated from NSG mouse peripheral blood (PB) harvested from tail vein, BM and spleen were subjected to flow cytometric analysis using CyAN (Beckman coulter) with Summit software.

[3] = histological score in NSG mice, H&E, Table 7

CXCL5: epithelial-derived neutrophil-activating protein 78, a CXC chemokine; human source
optimal in vitro working concentration [1]: 50 ng/mL
well-tolerated dose, deemed safe (healthy NSG mice; IV twice per week, NSG mice): 200 ng/mL
body weight (healthy NSG mice; gradually increasing dose, 18 days (FIG. 5A)): stably maintained
disease activity index (DAI) (DBA/1J mice with CIA): 8.7±4.2
leukocyte infiltration in the skin ([2]; FIG. 22B): 2.3±2.0 cells/HPF
hematopoiesis in bone marrow ([2]; FIG. 23A): maintain the normal hematopoiesis in bone marrow
effector cells in peripheral blood ([2]; FIG. 23B): suppressing the proliferation of monocytes and TH1 cells in peripheral blood
skin thickness ([2]; after 3-week treatment (FIG. 22A)): 277.2±47.6 μm
Kidney: Arterial changes (NSG mice with GVHD; [3]): none (graded with 4 tiers (none, mild, moderate and severe) and given a score of 0-3)
Kidney: Interstitial inflammation (NSG mice with GVHD; [3]): mild (graded with 4 tiers (none, mild, moderate and severe) and given a score of 0-3)
Kidney: Tubulitis (NSG mice with GVHD; [3]): mild (graded with 4 tiers (none, mild, moderate and severe) and given a score of 0-3)
Skin: Lymphocytic satelitosis number of cells (NSG mice with GVHD; [3]): < 5
Skin: Lymphocytic satelitosis, grade (NSG mice with GVHD; [3]): mild (graded with 4 tiers (none, mild, moderate and severe) and given a score of 0-3)
Skin: Vacuolar change (NSG mice with GVHD; [3]): none (graded with 4 tiers (none, mild, moderate and severe) and given a score of 0-3)
Skin: spongiosis (NSG mice with GVHD; [3]): none (graded with 4 tiers (none, mild, moderate and severe) and given a score of 0-3)
Small intestine: Apoptosis (NSG mice with GVHD; [3]): 1 /hpf
Small intestine: Apoptosis, grade (NSG mice with GVHD; [3]): mild (graded with 4 tiers (none, mild, moderate and severe) and given a score of 0-3)
Small intestine: Intraepithelial lymphocytosis (NSG mice with GVHD; [3]): 2/50 epithelial /50 epithelial cells
Small intestine: Intraepithelial lymphocytosis, grade (NSG mice with GVHD; [3]): cells(mild) (graded with 4 tiers (none, mild, moderate and severe) and given a score of 0-3)
Small intestine: Lymphocytic inflammation (NSG mice with GVHD; [3]): mild (graded with 4 tiers (none, mild, moderate and severe) and given a score of 0-3)
Σscore (overall histological score) (NSG mice with GVHD; maximum index 27, Mild, 0-9, moderate, 10-18, Severe, 19-27): 6
36-day survival (NSG mice with GVHD; moderate GVHD): 78.3%
symptoms (NSG mice with GVHD; moderate GVHD): mild
human pro-inflammatory cytokine secretion in the circulation (NSG mice with GVHD; plasma, Luminex 17-plex (FIGS. 8, 11)): comparable to the 2F cocktail in the suppression of pro-inflammatory cytokines IFN-γ, IL-6, IL-8, and MIP-1β
36-day survival (NSG mice with GVHD; severe GVHD): 26.1%
symptoms (NSG mice with GVHD; severe GVHD): moderate
immunosuppression effect on circulating CTLs, Th1 cells, splenic macrophages and NK cells (NSG mice with GVHD; single factor alone, cell population assay (FIG. 10)): suboptimal immunosuppression effect
